Test results from patent publication US11116767B2, “3,5-disubstituted pyrazoles useful as checkpoint kinase 1 (Chk1) inhibitors, and their preparations and applications” (PHARMAENGINE, INC., priority 2016, dated 2021).
Read-outs that look alike come from different tables or passages of the source. Values belong to the compound of their own block, whether it stands above or below them.

Experiments:
[1] = Pharmacokinetics study in rats, intravenous; assay type: in vivo, SD rats; settings: rat; for AUC(0-inf) / AUC(0-t) / clearance / MRT / half-life / Vd: male, SD, plasma; for AUC(0-inf): read-out: AUC0-inf; for AUC(0-t): read-out: AUC0-t; for clearance: read-out: CL (converted); for MRT: read-out: MRT; for half-life: read-out: t½ (converted)
Method: Compounds were formulated in 30% SEB-β-CD (Zhiyuan Bio-technology) with 1 molar equivalents of HCl (pH adjusted to 3-5). Male SD rats (280-350 g) were purchased from Medical Laboratory Animal Center of Guangdong. Three rats were used for each PK study. […] At various time points after compound administration, approximately 0.2˜0.3 mL of blood was collected by cutting the end of tail into tubes containing K2-EDTA. The plasma was separated via centrifugation and stored at −80° C. A PE Sciex API-3000 LC-MS/MS system (Applied Biosystems, Inc.) was used to analyze compound concentrations in plasma.
PK studies of ChK1 inhibitors were conducted in rats after intravenous administration at 10 mg/kg. […]. […]

[2] = Human liver S9 metabolic stability; assay type: in vitro ADME; settings: for Percentage Remaining %: 1 μM, 37° C.; for half-life at 1 μM: human liver S9, 1 μM
Method: Compounds (1 μM) were incubated with human liver S9 (from BD Gentest) at final liver microsomal protein concentration of 0.5 mg/mL for 0, 5, 15, 30, 45 min at 37° C. The remaining compounds in the reaction were measured by LC-MS/MS. The half-life (T½) 0.693/K (K is the rate constant from a plot of ln [concentration] vs. incubation time).

HT-29 = assay: Cancer cell growth inhibition assay (CellTiter-Glo), HT-29; assay type: cell-based, Human; settings: 72 hours, cellular ATP content, read-out: HT-29 anti cell proliferation activity (grade)
Method: (§1) Human cancer cell lines were purchased from American Type Culture Collection (Manassas, Va.). The trypsinized cells were diluted to required volume at densities of 44,000 cells/ml. 90 ul cell slurry was dispensed per well in 96-well flat-bottomed plates with the recommended culture medium. The cells were incubated for 24 hours at 37° C. in 5% CO2 under humidified condition. The cells were then incubated with compounds at various concentrations for 72 hours in culture medium supplemented with 0.5% (v/v) FBS. Growth inhibition was assessed by assay of cellular ATP content using CellTiter-Glo reagent to each well. Luminesce was read on Envision. The inhibition rate (%)=(Max signal compound signal)/(Max signal Min signal)×100.

Chk2 = target: T1, Chk2 (Homo sapiens, UniProt O96017); assay: biochemical; settings: ADP-Glo; read-out: Chk2 in vitro enzyme activity (grade)
T1 construct: purchased Carna 02-162

MDA-MB-231 = assay: Cancer cell growth inhibition assay (CellTiter-Glo), MDA-MB-231; assay type: cell-based, Human; settings: 72 hours, cellular ATP content, read-out: MDA-MB-231 anti cell proliferation activity (grade)
Method: as §1

Chk1 = target: T2, Chk1 (Homo sapiens, UniProt O14757); assay: biochemical; settings: ADP-Glo; read-out: Chk1 in vitro enzyme activity (grade)
T2 construct: purchased BPS 40039
T2 sequence (O14757 1-476): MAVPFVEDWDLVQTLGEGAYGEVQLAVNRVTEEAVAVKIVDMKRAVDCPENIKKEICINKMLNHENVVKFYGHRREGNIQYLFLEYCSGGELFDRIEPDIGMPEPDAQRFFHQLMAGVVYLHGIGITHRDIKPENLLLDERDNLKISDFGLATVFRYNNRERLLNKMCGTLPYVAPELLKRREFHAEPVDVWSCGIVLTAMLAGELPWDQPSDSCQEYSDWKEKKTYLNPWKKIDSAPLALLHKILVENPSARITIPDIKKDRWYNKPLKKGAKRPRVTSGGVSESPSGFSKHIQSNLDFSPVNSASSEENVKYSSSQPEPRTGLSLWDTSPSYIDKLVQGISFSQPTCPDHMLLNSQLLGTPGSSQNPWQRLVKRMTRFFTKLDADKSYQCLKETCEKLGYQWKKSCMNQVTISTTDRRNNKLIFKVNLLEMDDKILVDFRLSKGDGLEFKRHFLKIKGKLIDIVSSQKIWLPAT

HT-29 tumor xenograft = assay: HT-29 xenograft model, alone or in combination with CPT-11; assay type: in vivo, Balb/c nude mice; settings: for % T/C value: 15 mg/kg, IV
Method: (§2) Female Balb/c nude mice at 7-8 weeks of age (Body weights between 17-18g) were purchased from Hunan SJA Laboratory Animal Co., Ltd. HT-29 cells were cultured in DMEM culture medium containing 10% fetal bovine serum and LoVo cells were cultured in RPMI 1640 culture medium containing 10% fetal bovine serum. The cells were harvested and washed with serum free culture medium. Finally, the cells were suspended at a cell density of […] in serum free culture medium for implantation. 5 million cells per animal suspended in 0.1 ml serum free culture medium and 1.1 matrigel were injected into the right flank of the animals after a one, week acclimation period. When average tumor volume reached acceptable tumor size (100-200 mm^3) and shape, the animals were randomly assigned into treatment groups.
In HT-29 tumor xenograft model, the animals were treated with a single compound, a ChK1 inhibitor or CPT-11, or a combination with CPT11. […] The animals well tolerated each treatment in the HT-29 colon cancer in nude mice model.

[3] = system: LoVo colon cancer xenograft; assay: LoVo colon xenograft model; assay type: in vivo, Balb/c nude mice; settings: IV, twice a week
Method: as §2
Lovo colon cancer cells were implanted to establish the xenograft model in Balb/c nude mice. Compound 3 and LY2606368 were dissolved in 30% SEB-β-CD (Zhiyuan Bio-technology) with 1 molar equivalents of HCl. […]

[4] = system: HT-29 colon cancer xenograft; assay type: in vivo
Method: as §2
HT-29 colon cancer cells were implanted to establish the xenograft model in Balb/c nude mice. Compound 3 and LY2606368 were dissolved in 30% SEB-β-CD (Zhiyuan Bio-technology) with 1 molar equivalents of HCl. GDC-575 was suspended in 0.5% methyl cellulose/0.1% Tween 80 in water. […]. The animals well tolerated each treatment in the HT-29 colon cancer in nude mice model.

[5] = system: ChK1 phosphorylation (pChK1 S296) in HT-29 colon cancer cells; assay: Western blot analysis of ChK1 phosphorylation in HT-29 cells with SN-38; assay type: cell-based, Human; settings: HT-29 cells pre-incubated with Chk1 inhibitor 0.5 hours, then SN-38 (200 nM) 16 hours

T1 sequence (O96017 whole entry): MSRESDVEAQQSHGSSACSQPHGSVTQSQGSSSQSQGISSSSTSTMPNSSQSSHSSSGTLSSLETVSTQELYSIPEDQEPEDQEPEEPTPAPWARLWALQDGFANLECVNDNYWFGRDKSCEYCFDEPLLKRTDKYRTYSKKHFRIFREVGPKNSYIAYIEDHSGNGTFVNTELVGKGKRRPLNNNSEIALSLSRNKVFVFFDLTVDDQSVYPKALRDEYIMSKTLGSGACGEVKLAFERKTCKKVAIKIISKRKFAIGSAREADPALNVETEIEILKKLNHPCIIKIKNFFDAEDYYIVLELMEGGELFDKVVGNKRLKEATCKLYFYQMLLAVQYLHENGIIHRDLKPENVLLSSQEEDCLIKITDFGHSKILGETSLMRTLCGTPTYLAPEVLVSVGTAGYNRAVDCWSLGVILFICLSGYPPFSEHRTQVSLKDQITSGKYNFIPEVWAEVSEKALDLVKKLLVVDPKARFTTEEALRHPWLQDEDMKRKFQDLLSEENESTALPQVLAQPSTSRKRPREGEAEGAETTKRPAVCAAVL

- AUC(0-inf) ([1]; IV, 10 mg/kg): 2400 ng·h/mL
- AUC(0-t) ([1]; IV, 10 mg/kg): 2390 ng·h/mL
- clearance ([1]; IV, 10 mg/kg): 78.3 mL/min/kg
- MRT ([1]; IV, 10 mg/kg): 3.1 h
- half-life ([1]; IV, 10 mg/kg): 198 min
- Vd ([1]; iv, 10 mg/kg, IV, 10 mg/kg, read-out: Vd): 22.1 L/kg
- Vd ([1]; iv, 10 mg/kg, IV, 10 mg/kg, read-out: Vss): 14.3 L/kg
- Percentage Remaining % ([2]; 0 min): 100.00%
- Percentage Remaining % ([2]; 5 min): 97.57%
- Percentage Remaining % ([2]; 15 min): 94.83%
- Percentage Remaining % ([2]; 30 min): 88.45%
- Percentage Remaining % ([2]; 45 min): 82.67%
- metabolic stability compared with LY2606368 ([2]; human liver S9): more metabolic stable than LY2606368
- half-life at 1 μM [2]: 4.29 days
- IC50 (HT-29; Homo sapiens, HT-29): 10 to 50 nM
- IC50 (Chk2): 50 to 100 nM
- IC50 (MDA-MB-231; Homo sapiens, MDA-MB-231): 10 to 50 nM
- melting point: 198 to 203 °C
- IC50 (Chk1): ≤ 1 nM
Structure (SMILES): COc1cc(Cl)cc(OCCCN)c1-c1cc(Nc2cnc(C#N)cn2)n[nH]1 [Compound 4, 5-(5-(2-(3-Aminopropoxy)-4-chloro-6-methoxyphenyl)-1H-pyrazol-3-ylamino)pyrazine-2-carbonitrile]
- half-life and exposure compared with LY2606368 ([1]; IV, 10 mg/kg (LY2606368 5 mg/kg)): longer half-life and higher exposure than LY2606368

Structure (SMILES): COc1cccc(OCCCN)c1-c1cc(Nc2cnc(C#N)cn2)n[nH]1 [LY-2606368, reference compound]
- % T/C value (HT-29 tumor xenograft; twice a week plus CPT-11 (50 mg/kg, IV, once per week)): 0%
- % T/C value (HT-29 tumor xenograft; alone, twice a week): 61%
- effect on anti-tumor growth activity of CPT11 (HT-29 tumor xenograft; combination with CPT11): enhanced anti-tumor growth activity of CPT11
- T/C value ([3]; 15 mg/kg): −57%
- tumor growth inhibition ([3]; LY2606368 15 mg/kg, Compound 3 10, 20, 40 mg/kg): significant tumor growth inhibition in a dose-dependent manner
- AUC(0-inf) ([1]; IV, 5 mg/kg): 637 ng·h/mL
- AUC(0-t) ([1]; IV, 5 mg/kg): 631 ng·h/mL
- clearance ([1]; IV, 5 mg/kg): 132 mL/min/kg
- MRT ([1]; IV, 5 mg/kg): 1.2 h
- half-life ([1]; IV, 5 mg/kg): 78 min
- Vd ([1]; iv, 5 mg/kg, IV, 5 mg/kg, read-out: Vd): 14.7 L/kg
- Vd ([1]; iv, 5 mg/kg, IV, 5 mg/kg, read-out: Vss): 9.7 L/kg
- tolerability in rats ([1]; in vivo, iv, 10 mg/kg): did not tolerated
- half-life at 1 μM [2]: 0.0611 days
- IC50 (HT-29; Homo sapiens, HT-29): 10 to 50 nM
- T/C value ([4]; 15 mg/kg, iv, 2 times/week): 61%
- Tumor volume (X ± SD) ([4]; 15 mg/kg, iv, 2 times/week): 615 ± 10 mm^3
- Tumor weight (X ± SD) ([4]; 15 mg/kg, iv, 2 times/week): 390 ± 24 mg
- IC50 (MDA-MB-231; Homo sapiens, MDA-MB-231): 10 to 50 nM

Structure (SMILES): N[C@@H]1CCCN(c2c(Br)cnc3[nH]cc(NC(=O)C4CC4)c23)C1 [GDC-0575, reference compound]
- IC50 (HT-29): 100 to 500 nM
- T/C value ([4]; 25 mg/kg, po, 3 times/week): 50%
- Tumor volume (X ± SD) ([4]; 25 mg/kg, po, 3 times/week): 515 ± 158 mm^3
- Tumor weight (X ± SD) ([4]; 25 mg/kg, po, 3 times/week): 349 ± 94 mg
- inhibition of Chk1 phosphorylation (FIG. 1) [5]: less potent than these compounds
- IC50 (Chk2): 50 to 100 nM
- IC50 (MDA-MB-231): 100 to 500 nM
- IC50 (Chk1): 1 to 10 nM
